Reference: patent US12091399B2, “Phenyltetrazole derivatives as plasma kallikrein inhibitors” (Boehringer Ingelheim International GmbH, priority 2018, dated 2024)
pIC50: −log10 of the molar value.

These molecules were tested against Human PKK (Homo sapiens (Human), UniProt P03952) (assay: Inhibition of PKK using an endpoint assay (human PKK)). Settings: 1 h at rt, 0.10 μM H-Pro-Phe-Arg-AMC.
Chain of Human PKK (P03952 391-638): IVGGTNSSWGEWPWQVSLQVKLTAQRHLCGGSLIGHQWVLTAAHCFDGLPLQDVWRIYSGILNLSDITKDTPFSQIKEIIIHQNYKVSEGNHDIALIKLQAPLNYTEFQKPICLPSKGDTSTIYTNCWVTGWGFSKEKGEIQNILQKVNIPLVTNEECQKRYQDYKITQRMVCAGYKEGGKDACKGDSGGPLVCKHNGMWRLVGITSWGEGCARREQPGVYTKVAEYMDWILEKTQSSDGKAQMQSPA
Chain of Human PKK (P03952 20-390 partner): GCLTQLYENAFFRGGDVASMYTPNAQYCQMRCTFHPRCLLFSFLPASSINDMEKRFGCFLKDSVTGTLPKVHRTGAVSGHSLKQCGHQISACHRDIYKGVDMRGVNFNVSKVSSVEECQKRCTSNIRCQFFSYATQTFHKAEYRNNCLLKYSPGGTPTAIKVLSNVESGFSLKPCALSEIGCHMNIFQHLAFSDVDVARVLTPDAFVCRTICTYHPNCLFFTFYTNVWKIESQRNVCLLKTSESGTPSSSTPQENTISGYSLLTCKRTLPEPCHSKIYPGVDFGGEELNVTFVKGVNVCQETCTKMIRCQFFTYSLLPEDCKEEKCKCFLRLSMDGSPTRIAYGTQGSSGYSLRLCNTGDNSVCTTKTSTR
Type: biochemical
Method: The ability of compounds of formula (I) to inhibit plasma kallikrein (PKK), Factor XIIa (FXIIa), Factor XIa (FXIa), Factor Xa (FXa), Factor IIa (alpha-thrombin; FIIa), plasmin, trypsin, tissue kallikrein 1 (TK1), Factor Vila (FVIIa), or FVIIa complexed with Tissue Factor, phospholipids and CaCl2) (FVIIa/TF/PL/CaCl2) was determined using the following biochemical assays in assay buffer (100 mM Tris, 150 mM NaCL, adjusted to a pH of 7.8 with HCl, and containing 0.1% (w/v) BSA and 0.05% (v/v) Tween20) in the presence of 1% (v/v) DMSO:
Subsequently, PPACK II (Calbiochem) was added as a stop solution to achieve a final concentration of 1 μM and fluorescence was measured using an Envision Reader (PerkinElmer) with the wavelength excitation setting of 355 nm and the wavelength emission setting of 460 nm. The number of the compound corresponds to the number of the Example in the experimental section.
`Cc1cc(Cl)cc(CNC(=O)c2cnn(Cc3ccc(N4CC5CC5C4)nc3C)c2)c1-n1cnnn1` (stereo not shown) [Example 4] showed a pIC50 of 7.09.
Work on `Cc1nc(N2CC3CC3C2)ccc1Cn1cc(C(=O)NCc2c(-n3cnnn3)ccc(Cl)c2F)c(Cl)n1` (stereo not shown) [Example 7] yielded a pIC50 of 9.10.
`Cc1nc(N2CC3C(C2)C3(F)F)ccc1Cn1cc(C(=O)NCc2cc(Cl)ccc2-n2cnnn2)c2cncnc21` (stereo not shown) [Example 8] showed a pIC50 of 9.00.
`Cc1nc(N2CC3CC3C2)ccc1Cn1cc(C(=O)NCc2c(-n3cnnn3)ccc(Cl)c2F)c(C(F)F)n1` (stereo not shown) [Example 10] showed a pIC50 of 9.30.
In the case of `COCc1nn(Cc2ccc(N3CC4C(C3)C4(F)F)nc2C)cc1C(=O)NCc1c(-n2cnnn2)ccc(Cl)c1F` (stereo not shown) [Example 11], the pIC50 was 9.22.
Work on `COCc1nn(Cc2ccc(N3CC4C(C3)C4(F)F)nc2C)cc1C(=O)NCc1cc(Cl)ccc1-n1cnnn1` (stereo not shown) [Example 12] yielded a pIC50 of 9.05.
`COCc1nn(Cc2ccc(N3CC4CC4C3)nc2C)cc1C(=O)NCc1c(-n2cnnn2)ccc(Cl)c1F` (stereo not shown) [Example 14] gave a pIC50 of 9.22.
Molecule `Cc1nc(N2CC3CC3C2)ccc1Cn1cc(C(=O)NCc2c(-n3cnnn3)ccc(Cl)c2F)c2cncnc21` (stereo not shown) [Example 16] has a pIC50 of 9.22.
Work on `Cc1nc(N2CC3C(C2)C3(F)F)ccc1Cn1cc(C(=O)NCc2c(-n3cnnn3)ccc(Cl)c2F)c(C)n1` (stereo not shown) [Example 17] yielded a pIC50 of 9.40.
`Cc1nc(N2CC3C(C2)C3(F)F)ccc1Cn1cc(C(=O)NCc2cc(Cl)ccc2-n2cnnn2)c(C)n1` (stereo not shown) [Example 18] gave a pIC50 of 9.00.
`Cc1nc(N2CC3CC3C2)ccc1Cn1cc(C(=O)NCc2cc(Cl)ccc2-n2cnnn2)c(C)n1` (stereo not shown) [Example 19] showed a pIC50 of 9.15.
`Cc1nc(N2CC3CC3C2)ccc1Cn1cc(C(=O)NCc2c(-n3cnnn3)ccc(Cl)c2F)c(C)n1` (stereo not shown) [Example 20] was tested, and the pIC50 was 9.40.
`COc1nn(Cc2ccc(N3CC4CC4C3)nc2C)cc1C(=O)NCc1c(-n2cnnn2)ccc(Cl)c1F` (stereo not shown) [Example 22] was tested, and the pIC50 was 9.00.
`Cc1nc(N2CC3C(C2)C3(F)F)ncc1Cn1cc(C(=O)NCc2c(-n3cnnn3)ccc(Cl)c2F)c2cncnc21` (stereo not shown) [Example 23] showed a pIC50 of 9.00.
For `Cc1nc(N2CC3C(C2)C3(F)F)ncc1Cn1cc(C(=O)NCc2cc(Cl)ccc2-n2cnnn2)c2cncnc21` (stereo not shown) [Example 24], the pIC50 was 8.70.
With `COCc1nn(Cc2ccc(N3CC4(CC4)C3)nc2C)cc1C(=O)NCc1cc(Cl)ccc1-n1cnnn1` [Example 25] the pIC50 was 9.00.
With `Cc1nc(N2CC3CC3C2)ncc1Cn1cc(C(=O)NCc2c(-n3cnnn3)ccc(Cl)c2F)c2cncnc21` (stereo not shown) [Example 26] the pIC50 was 9.05.
In the case of `Cc1nc(N2CC3CC3C2)ncc1Cn1cc(C(=O)NCc2cc(Cl)ccc2-n2cnnn2)c2cncnc21` (stereo not shown) [Example 27], the pIC50 was 8.52.
In the case of `Cc1nc(N2CC3(CC3)C2)ccc1Cn1cc(C(=O)NCc2c(-n3cnnn3)ccc(Cl)c2F)c(C)n1` [Example 28], the pIC50 was 7.85.
`Cc1nc(N2CC3(CC3)C2)ccc1Cn1cc(C(=O)NCc2cc(Cl)ccc2-n2cnnn2)c(C)n1` [Example 29] showed a pIC50 of 8.70.
`Cc1nc(N2CC3CC3C2)ncc1Cn1cc(C(=O)NCc2c(-n3cnnn3)ccc(Cl)c2F)c(C)n1` (stereo not shown) [Example 30] showed a pIC50 of 9.10.
In the case of `Cc1nc(N2CC3CC3C2)ncc1Cn1cc(C(=O)NCc2cc(Cl)ccc2-n2cnnn2)c(C)n1` (stereo not shown) [Example 31], the pIC50 was 8.70.
For `COCc1nn(Cc2cnc(N3CC4C(C3)C4(F)F)nc2C)cc1C(=O)NCc1c(-n2cnnn2)ccc(Cl)c1F` (stereo not shown) [Example 32], the pIC50 was 9.00.
`Cc1nc(N2CC3C(C2)C3(F)F)ncc1Cn1cc(C(=O)NCc2c(-n3cnnn3)ccc(Cl)c2F)c(C)n1` (stereo not shown) [Example 33] showed a pIC50 of 9.10.
Work on `Cc1nc(N2CC3C(C2)C3(F)F)ncc1Cn1cc(C(=O)NCc2cc(Cl)ccc2-n2cnnn2)c(C)n1` (stereo not shown) [Example 34] yielded a pIC50 of 9.00.
With `COCc1nn(Cc2cnc(N3CC4CC4C3)nc2C)cc1C(=O)NCc1c(-n2cnnn2)ccc(Cl)c1F` (stereo not shown) [Example 35] the pIC50 was 9.00.
Work on `COCc1nn(Cc2cnc(N3CC4CC4C3)nc2C)cc1C(=O)NCc1cc(Cl)ccc1-n1cnnn1` (stereo not shown) [Example 36] yielded a pIC50 of 8.30.
`Cc1nc(N2CC3(CC3)C2)ncc1Cn1cc(C(=O)NCc2cc(Cl)ccc2-n2cnnn2)c(C)n1` [Example 37] showed a pIC50 of 8.70.
`Cc1nc(N2CC3(CC3)C2)ncc1Cn1cc(C(=O)NCc2c(-n3cnnn3)ccc(Cl)c2F)c(C)n1` [Example 38] gave a pIC50 of 9.15.
With `Cc1nc(N2CC3(CC3)C2)ncc1Cn1cc(C(=O)NCc2cc(Cl)ccc2-n2cnnn2)cn1` [Example 39] the pIC50 was 8.52.
With `Cc1nc(N2CC3(CC3)C2)ncc1Cn1cc(C(=O)NCc2c(-n3cnnn3)ccc(Cl)c2F)cn1` [Example 40] the pIC50 was 9.30.
`COCc1nn(Cc2cnc(N3CC4(CC4)C3)nc2C)cc1C(=O)NCc1cc(Cl)ccc1-n1cnnn1` [Example 41] gave a pIC50 of 8.22.
Work on `Cc1nc(N2CC3CC3C2)ccc1Cn1cc(C(=O)NCc2c(-n3cnnn3)ccc(Cl)c2F)c(-c2cnn(C)c2)n1` (stereo not shown) [Example 43] yielded a pIC50 of 9.40.
For `Cc1nc(N2CC3CC3C2)ccc1Cn1cc(C(=O)NCc2cc(Cl)ccc2-n2cnnn2)c2cccnc21` (stereo not shown) [Example 50], the pIC50 was 8.05.
`O=C(NCc1cc(Cl)ccc1-n1cnnn1)c1cnn(Cc2cnc(N3CC4C(C3)C4(F)F)c(Br)c2)c1` (stereo not shown) [Example 51] was tested, and the pIC50 was 8.70.
For `Cc1nc(N2CC3(CC3)C2)ccc1Cn1cc(C(=O)NCc2c(-n3cnnn3)ccc(Cl)c2F)cn1` [Example 53], the pIC50 was 9.70.
Work on `COC[C@H]1[C@H]2CN(c3ccc(Cn4cc(C(=O)NCc5cc(Cl)ccc5-n5cnnn5)cn4)c(C)n3)C[C@@H]12` [Example 55] yielded a pIC50 of 8.52.
In the case of `Cc1nc(N2C[C@@H]3[C@@H](O)[C@@H]3C2)ccc1Cn1cc(C(=O)NCc2cc(Cl)ccc2-n2cnnn2)cn1` [Example 56], the pIC50 was 8.22.
`Cc1nc(N2CC3(CC3)C2)ncc1Cn1cc(C(=O)NCc2cc(Cl)ccc2-n2cnnn2)c2cncnc21` [Example 57] was tested, and the pIC50 was 8.30.
Work on `Cc1nc(N2CCC3(COC3)C2)ccc1Cn1cc(C(=O)NCc2cc(Cl)ccc2-n2cnnn2)cn1` [Example 61, N-{[5-chloro-2-(1H-1,2,3,4-tetrazol-1-yl)phenyl]methyl}-1-[(2-methyl-6-{2-oxa-6-azaspiro[3.4]octan-6-yl}pyridin-3-yl)methyl]-1H-pyrazole-4-carboxamide] yielded a pIC50 of 7.92.
Molecule `Cc1nc(N2C[C@@H]3CNC(=O)[C@@H]3C2)ccc1Cn1cc(C(=O)NCc2cc(Cl)ccc2-n2cnnn2)cn1` [Example 62, 1-({6-[(3aS,6aS)-4-oxo-octahydropyrrolo[3,4-c]pyrrol-2-yl]-2-methylpyridin-3-yl}methyl)-N-{[5-chloro-2-(1H-1,2,3,4-tetrazol-1-yl)phenyl]methyl}-1H-pyrazole-4-carboxamide] has a pIC50 of 8.52.
In the case of `Cc1nc(N2CC3(CC(O)C3)C2)ccc1Cn1cc(C(=O)NCc2cc(Cl)ccc2-n2cnnn2)cn1` [Example 64, N-{[5-chloro-2-(1H-1,2,3,4-tetrazol-1-yl)phenyl]methyl}-1-[(6-{6-hydroxy-2-azaspiro[3.3]heptan-2-yl}-2-methylpyridin-3-yl)methyl]-1H-pyrazole-4-carboxamide], the pIC50 was 6.65.
`Cc1nc(N2CC3CC(C2)O3)ccc1Cn1cc(C(=O)NCc2cc(Cl)ccc2-n2cnnn2)cn1` [Example 65, N-{[5-chloro-2-(1H-1,2,3,4-tetrazol-1-yl)phenyl]methyl}-1-[(2-methyl-6-{6-oxa-3-azabicyclo[3.1.1]heptan-3-yl}pyridin-3-yl)methyl]-1H-pyrazole-4-carboxamide] gave a pIC50 of 8.00.
`Cc1nc(N2CCC3(C2)CC3(F)F)ccc1Cn1cc(C(=O)NCc2cc(Cl)ccc2-n2cnnn2)cn1` (stereo not shown) [Example 66, N-{[5-chloro-2-(1H-1,2,3,4-tetrazol-1-yl)phenyl]methyl}-1-[(6-{1,1-difluoro-5-azaspiro[2.4]heptan-5-yl}-2-methylpyridin-3-yl)methyl]-1H-pyrazole-4-carboxamide] gave a pIC50 of 8.05.
In the case of `Cc1nc(N2CC3CC2C3)ccc1Cn1cc(C(=O)NCc2cc(Cl)ccc2-n2cnnn2)cn1` [Example 67, 1-[(6-{2-azabicyclo[2.1.1]hexan-2-yl}-2-methylpyridin-3-yl)methyl]-N-{[5-chloro-2-(1H-1,2,3,4-tetrazol-1-yl)phenyl]methyl}-1H-pyrazole-4-carboxamide], the pIC50 was 8.00.
Molecule `Cc1nc(N2CC3CC(C2)C3O)ccc1Cn1cc(C(=O)NCc2cc(Cl)ccc2-n2cnnn2)cn1` (stereo not shown) [Example 68, N-{[5-chloro-2-(1H-1,2,3,4-tetrazol-1-yl)phenyl]methyl}-1-[(6-{6-hydroxy-3-azabicyclo[3.1.1]heptan-3-yl}-2-methylpyridin-3-yl)methyl]-1H-pyrazole-4-carboxamide] has a pIC50 of 8.40.
`Cc1nc(N2CC3(CCCO3)C2)ccc1Cn1cc(C(=O)NCc2cc(Cl)ccc2-n2cnnn2)cn1` [Example 69, N-{[5-chloro-2-(1H-1,2,3,4-tetrazol-1-yl)phenyl]methyl}-1-[(2-methyl-6-{5-oxa-2-azaspiro[3.4]octan-2-yl}pyridin-3-yl)methyl]-1H-pyrazole-4-carboxamide] showed a pIC50 of 8.30.
For `Cc1nc(N2CC3OCC(N)C3C2)ccc1Cn1cc(C(=O)NCc2cc(Cl)ccc2-n2cnnn2)cn1` (stereo not shown) [Example 70, 1-[(6-{3-amino-hexahydro-2H-furo[2,3-c]pyrrol-5-yl}-2-methylpyridin-3-yl)methyl]-N-{[5-chloro-2-(1H-1,2,3,4-tetrazol-1-yl)phenyl]methyl}-1H-pyrazole-4-carboxamide], the pIC50 was 6.07.
In the case of `Cc1nc(N2CCC3(CCOC3)C2)ccc1Cn1cc(C(=O)NCc2cc(Cl)ccc2-n2cnnn2)cn1` (stereo not shown) [Example 71, N-{[5-chloro-2-(1H-1,2,3,4-tetrazol-1-yl)phenyl]methyl}-1-[(2-methyl-6-{2-oxa-7-azaspiro[4.4]nonan-7-yl}pyridin-3-yl)methyl]-1H-pyrazole-4-carboxamide], the pIC50 was 8.10.
